Values of other authors, collected in patent US20030083520A1, “Process for preparing bicyclic amino acid” (Pfizer Inc., priority 2001, published 2003).

Test system: α2δ subunit derived from porcine brain tissue
Details: [3H]gabapentin radioligand

Compound	α2δ binding affinity
NCC1(CC(=O)O)C[C@H]2CC[C@@H]2C1 (racemic) [(+/−)-(1α,5β)(3-Aminomethyl-bicyclo[3.2.0]hept-3-yl)-acetic acid]	2.86 µM
NC[C@]1(CC(=O)O)C[C@H]2CC[C@H]2C1 [(1α,3α,5α)(3-aminomethyl-bicyclo[3.2.0]hept-3-yl)-acetic acid]	0.038 µM
NC[C@@]1(CC(=O)O)C[C@H]2CC[C@H]2C1 [(1α,3β,5α)(3-Aminomethyl-bicyclo[3.2.0]hept-3-yl)-acetic acid]	0.332 µM
